# Assay results as given in patent publication US9426996B2, “Use of benzoxaboroles as volatile antimicrobial agents on meats, plants, or plant parts” (AgroFresh Inc., priority 2013, dated 2016).
# Columns and labels:
# Alternaria alternata = assay: combination treatment with 1-MCP on broccoli; format: in vivo; set-up: scale not given here; conditions: 21° C.
# Description: To evaluate a combination treatment of Compound A with 1-methylcyclopropene (1-MCP), an in vivo experiment is performed on broccoli.
# Broccoli flowers are inoculated with 1×10^6 spores/mL of Alternaria alternata and then placed in a 117 L Rubbermaid storage box (Cat #2244) with two small fans placed in opposite ends of the container. A 500 ppb v/v 1-MCP treatment is applied (AgroFresh, Springhouse, Pa.) for 24 hours at 1° C. After completion of the 1-MCP treatment, broccoli florets are removed and placed in a 10.8-cup SnapWare airtight container (Model #109842). Compound A powder is applied in a dose dependent manner to achieve a final headspace concentration of 2 or 0.4 mg/L with a sublimation device (copper tube heated to 200° C. with fan flow at 0.5 L/min), with the end of the tube penetrating through a ½ inch side port in the container that is sealed immediately after the application. The florets are incubated for five days at 10° C. or three days at 21° C., then evaluated for an additional five days at 21° C. for disease incidence and severity.
# Botrytis cinerea [1] = assay: in vitro spore germination assay, temperature regimes; format: cell-based; conditions: B. cinerea spores; for inhibition at 0.035 µg/mL: 0.035 mg/L; for inhibition at 0.07 µg/mL: 0.07 mg/L; for inhibition at 0.14 µg/mL: 0.14 mg/L
# Description: (§1) In order to assess the activity of Compound A as a volatile fungicide, an in vitro assay is developed to evaluate spore germination. Two mL of water agar is poured in 3.5 cm Petri plates. […] Plates are then incubated for either one day at 0° C., five day at 0° C., or five day at 0° C. plus an additional one or two days at 21° C.
# Penicillium expansum = assay: as above; format: cell-based; conditions: P. expansum spores; for inhibition at 0.035 µg/mL: 0.035 mg/L; for inhibition at 0.07 µg/mL: 0.07 mg/L; for inhibition at 0.14 µg/mL: 0.14 mg/L
# Description: as §1
# Botrytis cinerea [2] = assay: in vitro inhibition assay for volatile antimicrobial compounds (12-well PDA plates); format: cell-based; conditions: in vitro; volatile; 14 days at 4° C.
# Description: 12-Well (7 milliliter (mL volume per well) microtiter plates are used for the in vitro inhibition assay for volatile antimicrobial compounds. A 3-mL volume of full-strength Potato Dextrose Agar (PDA) is added to each well. After cooling, 1 microliter (μL) of 1×10^6 per mL Botrytis cinerea spore suspension is spot pipetted to the center of the agar. For the first experiment, inoculated plates are allowed to germinate for 5 days at 4° C. For the second experiment, plates are inoculated immediately prior to volatile fungicide treatment. Small Whatman #1 filter disks (Cat. No. 1001-0155) are placed, in duplicate, on the underside of a polyethylene PCR plate sealing film.
# The acetone is permitted to evaporate for 5 minutes. The headspace around the Botrytis cinerea inoculum is then sealed inside the well by the film with the adhering disk containing the fungicide. Plates are inverted, placed over the treated disks and sealed to prevent any of the chemical from flaking from the disk and falling onto the inoculated agar. After 14 days of storage at 4° C., cultures are evaluated for percent growth relative to control. Regardless of whether the spores had germinated for 5 days, or if the treatment commenced soon after inoculation of the plates (˜15 minutes); there is 100% control of the fungal pathogen down to 0.005 mg.
# A total of 14 antimicrobial compounds are tested using the in vitro inhibition assay described in Example 1. All 14 compounds are applied to the Whatman disks, in duplicate, in a dose dependent manner (0.31 to 0.0006 mg/disk). […] Other compounds, such as Compound C, Compound D, and Compound E conferred 100% control down to 0.023, 0.04, and 0.08 mg/disk, respectively. Results of nine compounds are summarized in Table 2, where the other five compounds show no detected activity in the ranges tested. […]
smiles,measurement,setting,value
OB1OCc2cc(F)ccc21 [Compound A],Color Score,Alternaria alternata; 0.4 mg/L,1.32
same,Severity,Alternaria alternata; 0.4 mg/L,0.29
same,Color Score,Alternaria alternata; 2 mg/L,1.89
same,Severity,Alternaria alternata; 2 mg/L,0.07
same,inhibition at 0.035 µg/mL,"Botrytis cinerea [1]; 24 h, 1 day, 0° C.",0%
same,inhibition at 0.07 µg/mL,"Botrytis cinerea [1]; 24 h, 1 day, 0° C.",0%
same,inhibition at 0.14 µg/mL,"Botrytis cinerea [1]; 24 h, 1 day, 0° C.",0%
same,inhibition at 0.035 µg/mL,"Botrytis cinerea [1]; 120 h, 5 day, 0° C.",0%
same,inhibition at 0.07 µg/mL,"Botrytis cinerea [1]; 120 h, 5 day, 0° C.",0%
same,inhibition at 0.14 µg/mL,"Botrytis cinerea [1]; 120 h, 5 day, 0° C.",0%
same,inhibition at 0.035 µg/mL,"Botrytis cinerea [1]; 5 day, 0° C. 1 day, 21° C.",0%
same,inhibition at 0.07 µg/mL,"Botrytis cinerea [1]; 5 day, 0° C. 1 day, 21° C.",0%
same,inhibition at 0.14 µg/mL,"Botrytis cinerea [1]; 5 day, 0° C. 1 day, 21° C.",0%
same,inhibition at 0.035 µg/mL,"Penicillium expansum; 24 h, 1 day, 0° C.",0%
same,inhibition at 0.07 µg/mL,"Penicillium expansum; 24 h, 1 day, 0° C.",0%
same,inhibition at 0.14 µg/mL,"Penicillium expansum; 24 h, 1 day, 0° C.",0%
same,inhibition at 0.035 µg/mL,"Penicillium expansum; 120 h, 5 day, 0° C.",0%
same,inhibition at 0.07 µg/mL,"Penicillium expansum; 120 h, 5 day, 0° C.",0%
same,inhibition at 0.14 µg/mL,"Penicillium expansum; 120 h, 5 day, 0° C.",0%
same,inhibition at 0.035 µg/mL,"Penicillium expansum; 5 day, 0° C. 1 day, 21° C.",0%
same,inhibition at 0.07 µg/mL,"Penicillium expansum; 5 day, 0° C. 1 day, 21° C.",0%
same,inhibition at 0.14 µg/mL,"Penicillium expansum; 5 day, 0° C. 1 day, 21° C.",0%
same,lowest rate with 100% control of Botrytis cinerea,Botrytis cinerea [2],0.005 mg/disk
